Experimental findings from patent US7361659B2, “Pyrrazolo-pyrimidine derivatives” (Hoffmann-La Roche Inc., priority 2005, dated 2008) are described below.

For the molecule `Cc1nc(NC(=O)c2cnn3c(C(F)F)cc(-c4ccc(C(F)(F)F)cc4)nc23)sc1S(=O)(=O)N(C)CCO` [Example 70, 7-Difluoromethyl-5-(4-trifluoromethyl-phenyl)-pyrazolo[1,5-a]pyrimidine-3-carboxylic acid {5-[(2-hydroxy-ethyl)-methyl-sulfamoyl]-4-methyl-thiazol-2-yl}-amide], the melting point turned out to be 216 °C.
For `Cc1nc(NC(=O)c2cnn3c(C(F)F)cc(-c4ccc(C(F)(F)F)cc4)nc23)sc1S(=O)(=O)NC(C)(C)CO` [Example 14, 7-Difluoromethyl-5-(4-trifluoromethyl-phenyl)-pyrazolo[1,5-a]pyrimidine-3-carboxylic acid [5-(2-hydroxy-1,1-dimethyl-ethylsulfamoyl)-4-methyl-thiazol-2-yl]-amide] the value was 268 °C.
`CC(C)(CO)NS(=O)(=O)c1cc(NC(=O)c2cnn3c(C(F)(F)F)cc(-c4ccc(C(F)(F)F)c(OCC(F)(F)F)c4)nc23)c(Cl)s1` [Example 17, 5-[3-(2,2,2-Trifluoro-ethoxy)-4-trifluoromethyl-phenyl]-7-trifluoromethyl-pyrazolo[1,5-a]pyrimidine-3-carboxylic acid [2-chloro-5-(2-hydroxy-1,1-dimethyl-ethylsulfamoyl)-thiophen-3-yl]-amide] returned a melting point of 264 °C.
For `Cc1nc(NC(=O)c2cnn3c(C(F)(F)F)cc(-c4ccc(C(F)(F)F)cc4)nc23)sc1S(=O)(=O)N(CCO)CCO` [Example 41, 7-Trifluoromethyl-5-(4-trifluoromethyl-phenyl)-pyrazolo[1,5-a]pyrimidine-3-carboxylic acid {5-[bis-(2-hydroxy-ethyl)-sulfamoyl]-4-methyl-thiazol-2-yl}-amide] the value was 214 °C; for `Cc1sc(S(N)(=O)=O)cc1NC(=O)c1cnn2c(C(F)F)cc(-c3ccc(C(F)(F)F)cc3)nc12` [Example 48, 7-Difluoromethyl-5-(4-trifluoromethyl-phenyl)-pyrazolo[1,5-a]pyrimidine-3-carboxylic acid (2-methyl-5-sulfamoyl-thiophen-3-yl)-amide], 313 °C; for `Cc1sc(S(=O)(=O)NC(C)(C)CO)cc1NC(=O)c1cnn2c(C(F)(F)F)cc(-c3ccc(C(F)(F)F)cc3)nc12` [Example 49, 7-Trifluoromethyl-5-(4-trifluoromethyl-phenyl)-pyrazolo[1,5-a]pyrimidine-3-carboxylic acid [5-(2-hydroxy-1,1-dimethyl-ethylsulfamoyl)-2-methyl-thiophen-3-yl]-amide], 225 °C.
As for `Cc1nc(NC(=O)c2cnn3c(C(F)(F)F)cc(-c4ccc(Cl)c(Cl)c4)nc23)sc1S(=O)(=O)NC(C)(C)CO` [Example 31, 5-(3,4-Dichloro-phenyl)-7-trifluoromethyl-pyrazolo[1,5-a]pyrimidine-3-carboxylic acid [5-(2-hydroxy-1,1-dimethyl-ethylsulfamoyl)-4-methyl-thiazol-2-yl]-amide], the figure is 265 °C; as for `CN(C)CCNS(=O)(=O)c1cc(NC(=O)c2cnn3c(C(F)(F)F)cc(-c4ccc(C(F)(F)F)cc4)nc23)c(Cl)s1` [Example 55, 7-Trifluoromethyl-5-(4-trifluoromethyl-phenyl)-pyrazolo[1,5-a]pyrimidine-3-carboxylic acid [2-chloro-5-(2-dimethylamino-ethylsulfamoyl)-thiophen-3-yl]-amide], 198 °C.
`Cc1nc(NC(=O)c2cnn3c(C(F)(F)F)cc(-c4ccc(C(F)(F)F)cc4)nc23)sc1S(=O)(=O)NCCO` [Example 46, 7-Trifluoromethyl-5-(4-trifluoromethyl-phenyl)-pyrazolo[1,5-a]pyrimidine-3-carboxylic acid [5-(2-hydroxy-ethylsulfamoyl)-4-methyl-thiazol-2-yl]-amide] came in with a melting point of 166 °C.
As for `Cc1nc(NC(=O)c2cnn3c(C(F)F)cc(-c4ccc(C(F)(F)F)cc4)nc23)sc1S(=O)(=O)NCCO` [Example 45, 7-Difluoromethyl-5-(4-trifluoromethyl-phenyl)-pyrazolo[1,5-a]pyrimidine-3-carboxylic acid [5-(2-hydroxy-ethylsulfamoyl)-4-methyl-thiazol-2-yl]-amide], the figure is 134 °C; as for `CN1CCN(S(=O)(=O)c2cc(NC(=O)c3cnn4c(C(F)F)cc(-c5ccc(C(F)(F)F)cc5)nc34)c(Cl)s2)CC1` [Example 73, 7-Difluoromethyl-5-(4-trifluoromethyl-phenyl)-pyrazolo[1,5-a]pyrimidine-3-carboxylic acid [2-chloro-5-(4-methyl-piperazine-1-sulfonyl)-thiophen-3-yl]-amide], 293 °C.
For `CCOc1cc(-c2cc(C(F)(F)F)n3ncc(C(=O)Nc4nc(C)c(S(=O)(=O)NC(C)(CO)CO)s4)c3n2)ccc1C(F)(F)F` [Example 53, 5-(3-Ethoxy-4-trifluoromethyl-phenyl)-7-trifluoromethyl-pyrazolo[1,5-a]pyrimidine-3-carboxylic acid [5-(2-hydroxy-1-hydroxymethyl-1-methyl-ethylsulfamoyl)-4-methyl-thiazol-2-yl]-amide] the value was 220 °C; for `CN(CCO)S(=O)(=O)c1cc(NC(=O)c2cnn3c(C(F)(F)F)cc(-c4ccc(C(F)(F)F)cc4)nc23)c(Cl)s1` [Example 77, 7-Trifluoromethyl-5-(4-trifluoromethyl-phenyl)-pyrazolo[1,5-a]pyrimidine-3-carboxylic acid {2-chloro-5-[(2-hydroxy-ethyl)-methyl-sulfamoyl]-thiophen-3-yl}-amide], 221 °C.
As for `O=C(Nc1cc(S(=O)(=O)NCCO)sc1Cl)c1cnn2c(C(F)(F)F)cc(-c3ccc(C(F)(F)F)cc3)nc12` [Example 36, 7-Trifluoromethyl-5-(4-trifluoromethyl-phenyl)-pyrazolo[1,5-a]pyrimidine-3-carboxylic acid [2-chloro-5-(2-hydroxy-ethylsulfamoyl)-thiophen-3-yl]-amide], the figure is 191 °C; as for `Cc1nc(NC(=O)c2cnn3c(C(F)(F)F)cc(-c4ccc(C(F)(F)F)cc4)nc23)sc1S(=O)(=O)NC(C)(C)CO` [Example 13, 7-Trifluoromethyl-5-(4-trifluoromethyl-phenyl)-pyrazolo[1,5-a]pyrimidine-3-carboxylic acid [5-(2-hydroxy-1,1-dimethyl-ethylsulfamoyl)-4-methyl-thiazol-2-yl]-amide], 257 °C; as for `CCOc1cc(-c2cc(C(F)(F)F)n3ncc(C(=O)Nc4cc(S(N)(=O)=O)sc4Cl)c3n2)ccc1C(F)(F)F` [Example 10, 5-(3-Ethoxy-4-trifluoromethyl-phenyl)-7-trifluoromethyl-pyrazolo[1,5-a]pyrimidine-3-carboxylic acid (2-chloro-5-sulfamoyl-thiophen-3-yl)-amide], 281 °C.
Regarding `NS(=O)(=O)c1cc(NC(=O)c2cnn3c(C(F)F)cc(-c4ccc(C(F)(F)F)cc4)nc23)c(Cl)s1` [Example 1, 7-Difluoromethyl-5-(4-trifluoromethyl-phenyl)-pyrazolo[1,5-a]pyrimidine-3-carboxylic-acid (2-chloro-5-sulfamoyl-thiophen-3-yl)-amide], the melting point amounted to 298 °C.
On to `CC(CO)(CO)NS(=O)(=O)c1cc(NC(=O)c2cnn3c(C(F)(F)F)cc(-c4ccc(C(F)(F)F)cc4)nc23)c(Cl)s1` [Example 38, 7-Trifluoromethyl-5-(4-trifluoromethyl-phenyl)-pyrazolo[1,5-a]pyrimidine-3-carboxylic acid [2-chloro-5-(2-hydroxy-1-hydroxymethyl-1-methyl-ethylsulfamoyl)-thiophen-3-yl]-amide], for which the melting point amounted to 201 °C.
`Cc1nc(NC(=O)c2cnn3c(C(F)F)cc(-c4ccc(C(F)(F)F)cc4)nc23)sc1S(=O)(=O)NC(C)(CO)CO` [Example 43, 7-Difluoromethyl-5-(4-trifluoromethyl-phenyl)-pyrazolo[1,5-a]pyrimidine-3-carboxylic acid [5-(2-hydroxy-1-hydroxymethyl-1-methyl-ethylsulfamoyl)-4-methyl-thiazol-2-yl]-amide] returned a melting point of 248 °C.
For `O=C(Nc1cc(S(=O)(=O)NCCO)sc1Cl)c1cnn2c(C(F)F)cc(-c3ccc(C(F)(F)F)cc3)nc12` [Example 44, 7-Difluoromethyl-5-(4-trifluoromethyl-phenyl)-pyrazolo[1,5-a]pyrimidine-3-carboxylic acid [2-chloro-5-(2-hydroxy-ethylsulfamoyl)-thiophen-3-yl]-amide] the value was 209 °C; for `Cc1cc(-c2cc(C(F)(F)F)n3ncc(C(=O)Nc4cc(S(N)(=O)=O)sc4Cl)c3n2)ccc1C(F)(F)F` [Example 11, 5-(3-Methyl-4-trifluoromethyl-phenyl)-7-trifluoromethyl-pyrazolo[1,5-a]pyrimidine-3-carboxylic acid (2-chloro-5-sulfamoyl-thiophen-3-yl)-amide], 283 °C.
For `CN1CCN(S(=O)(=O)c2cc(NC(=O)c3cnn4c(C(F)(F)F)cc(-c5ccc(C(F)(F)F)cc5)nc34)c(Cl)s2)CC1` [Example 74, 7-Trifluoromethyl-5-(4-trifluoromethyl-phenyl)-pyrazolo[1,5-a]pyrimidine-3-carboxylic acid [2-chloro-5-(4-methyl-piperazine-1-sulfonyl)-thiophen-3-yl]-amide], the melting point came out at 301 °C.
As for `CCOc1cc(-c2cc(C(F)(F)F)n3ncc(C(=O)Nc4nc(C)c(S(N)(=O)=O)s4)c3n2)ccc1C(F)(F)F` [Example 20, 5-(3-Ethoxy-4-trifluoromethyl-phenyl)-7-trifluoromethyl-pyrazolo[1,5-a]pyrimidine-3-carboxylic acid (4-methyl-5-sulfamoyl-thiazol-2-yl)-amide], the figure is 300 °C; as for `O=C(Nc1cc(S(=O)(=O)N2CCC(O)C2)sc1Cl)c1cnn2c(C(F)(F)F)cc(-c3ccc(C(F)(F)F)cc3)nc12` (racemic) [Example 67, 7-Trifluoromethyl-5-(4-trifluoromethyl-phenyl)-pyrazolo[1,5-a]pyrimidine-3-carboxylic acid [(RS)-2-chloro-5-(3-hydroxy-pyrrolidine-1-sulfonyl)-thiophen-3-yl]-amide], 270 °C.
